{"source": "patent US11986493B2", "about": "(University of Pittsburgh—Of the Commonwealth System of …, priority 2013, dated 2024)", "key": {"[1]": {"system": "subjects with pulmonary hypertension (WHO group I PAH, WHO group III PH)", "assay": "Right heart catheterization: right heart/pulmonary artery hemodynamics, thermodilution cardiac output, PVR and SVR after inhaled NO and nebulized nitrite", "format": "in vivo, human", "experimental": "A total of 6 subjects with a confirmed diagnosis of pulmonary hypertension and meeting all inclusion/exclusion criteria were enrolled in the study which entailed a single right heart catheterization. The study population consisted of subjects with WHO group I PAH (n=3) and subjects with WHO group III PH (n=3) which received the dose escalation paradigm:\n(§1) During the study right heart/pulmonary artery hemodynamics were measured as well as noninvasive systemic blood pressure monitoring and simultaneous RV echocardiography. Subjects were tested for the changes in pulmonary vascular resistance (PVR) measured by right heart catheterization and using thermodilution cardiac output measurement at time zero, at times 15, 30 and 45 minutes after completion of each nebulization dose.\nFollowing right heart catheterization, the patient was stabilized for 20 minutes. Baseline blood collections and hemodynamic measurements were performed, followed by treatment with 40 ppm inhaled NO gas for […] with repeat hemodynamic measurements performed.\nAfter stopping inhaled NO gas, a single dose of sildenafil was given if patients were on background sildenafil therapy at previously prescribed doses. 45-minutes after sildenafil dose baseline hemodynamics were performed.\nSubjects were monitored carefully during and after the study treatment.\nThe study was conducted at the 3rd FL Catheterization Laboratory at Presbyterian Hospital of the University of Pittsburgh Medical Center (UPMC). Baseline vasoreactivity was recorded after Inhaled NO at 40 ppm for […]. […] Subjects were instructed to breathe as calmly, and deeply as possible until no more mist was formed in the nebulizer chamber. Subjects were also instructed to hold their breath for approximately 10 seconds after inhalation to allow the study drug to reach deep into the lungs."}, "[2]": {"system": "subjects with pulmonary hypertension", "assay": "Systemic blood pressure (noninvasive) and heart rate monitoring during the study", "experimental": "as §1\nSubjects were monitored closely for changes in blood pressure during the study. […] Subjects were continued to be monitored closely every 10 minutes for 2 hours."}, "[3]": {"system": "subjects with pulmonary hypertension", "assay": "Oxygen saturation by pulse oximeter and methemoglobin by continuous percutaneous co-oximetry", "format": "in vivo, human", "parameters": "Syst O2sat: unit not given here", "experimental": "Oxygen saturation measured by pulse oximeter and methemoglobin levels monitored by continuous percutaneous co-oximetry prior to dose administration and through 4 hours post-dose were monitored closely."}, "[4]": {"conditions": "40 ppm inhaled NO, some patients (non-responsive to inhaled NO)"}}, "data": [{"substance": "nitric oxide [iNO, reference compound]", "values": [{"measurement": "reduction in PCWP from baseline", "setting": "[1]; [4]", "value": "did not show a meaningful reduction"}, {"measurement": "reduction in RA from baseline", "setting": "[1]; [4]", "value": "did not show a meaningful reduction"}, {"measurement": "CI", "setting": "[1]; Patient 1, 40 ppm inhaled NO", "value": 2.54}, {"measurement": "CO", "setting": "[1]; Patient 1, 40 ppm inhaled NO", "value": 4.91}, {"measurement": "PA sat", "setting": "[1]; Patient 1, 40 ppm inhaled NO", "value": 68}, {"measurement": "PAD", "setting": "[1]; Patient 1, 40 ppm inhaled NO", "value": 25}, {"measurement": "PAS", "setting": "[1]; Patient 1, 40 ppm inhaled NO", "value": 73}, {"measurement": "PCWP", "setting": "[1]; Patient 1, 40 ppm inhaled NO", "value": 14}, {"measurement": "PVR", "setting": "[1]; Patient 1, 40 ppm inhaled NO", "value": 5.50}, {"measurement": "PVR/SVR", "setting": "[1]; Patient 1, 40 ppm inhaled NO", "value": 0.40}, {"measurement": "RA", "setting": "[1]; Patient 1, 40 ppm inhaled NO", "value": 12}, {"measurement": "SVR", "setting": "[1]; Patient 1, 40 ppm inhaled NO", "value": 13.78}, {"measurement": "TPR", "setting": "[1]; Patient 1, 40 ppm inhaled NO", "value": 8.35}, {"measurement": "mPAP", "setting": "[1]; Patient 1, 40 ppm inhaled NO", "value": 41.01}, {"measurement": "CI", "setting": "[1]; Patient 2, 40 ppm inhaled NO", "value": 3.47}, {"measurement": "CO", "setting": "[1]; Patient 2, 40 ppm inhaled NO", "value": 6.7}, {"measurement": "PA sat", "setting": "[1]; Patient 2, 40 ppm inhaled NO", "value": 68}, {"measurement": "PAD", "setting": "[1]; Patient 2, 40 ppm inhaled NO", "value": 13}, {"measurement": "PAS", "setting": "[1]; Patient 2, 40 ppm inhaled NO", "value": 45}, {"measurement": "PCWP", "setting": "[1]; Patient 2, 40 ppm inhaled NO", "value": 10}, {"measurement": "PVR", "setting": "[1]; Patient 2, 40 ppm inhaled NO", "value": 2.04}, {"measurement": "PVR/SVR", "setting": "[1]; Patient 2, 40 ppm inhaled NO", "value": 0.17}, {"measurement": "RA", "setting": "[1]; Patient 2, 40 ppm inhaled NO", "value": 7}, {"measurement": "SVR", "setting": "[1]; Patient 2, 40 ppm inhaled NO", "value": 11.99}, {"measurement": "TPR", "setting": "[1]; Patient 2, 40 ppm inhaled NO", "value": 3.53}, {"measurement": "mPAP", "setting": "[1]; Patient 2, 40 ppm inhaled NO", "value": 23.67}, {"measurement": "CI", "setting": "[1]; Patient 3, 40 ppm inhaled NO", "value": 3.14}, {"measurement": "CO", "setting": "[1]; Patient 3, 40 ppm inhaled NO", "value": 6.53}, {"measurement": "PAD", "setting": "[1]; Patient 3, 40 ppm inhaled NO", "value": 20}, {"measurement": "PAS", "setting": "[1]; Patient 3, 40 ppm inhaled NO", "value": 69}, {"measurement": "PCWP", "setting": "[1]; Patient 3, 40 ppm inhaled NO", "value": 14}, {"measurement": "PVR", "setting": "[1]; Patient 3, 40 ppm inhaled NO", "value": 3.42}, {"measurement": "PVR/SVR", "setting": "[1]; Patient 3, 40 ppm inhaled NO", "value": 0.35}, {"measurement": "RA", "setting": "[1]; Patient 3, 40 ppm inhaled NO", "value": 11}, {"measurement": "SVR", "setting": "[1]; Patient 3, 40 ppm inhaled NO", "value": 9.65}, {"measurement": "TPR", "setting": "[1]; Patient 3, 40 ppm inhaled NO", "value": 5.56}, {"measurement": "mPAP", "setting": "[1]; Patient 3, 40 ppm inhaled NO", "value": 36.34}, {"measurement": "CI", "setting": "[1]; Patient 4, 40 ppm inhaled NO", "value": 2.98}, {"measurement": "CO", "setting": "[1]; Patient 4, 40 ppm inhaled NO", "value": 5.21}, {"measurement": "PAD", "setting": "[1]; Patient 4, 40 ppm inhaled NO", "value": 21}, {"measurement": "PAS", "setting": "[1]; Patient 4, 40 ppm inhaled NO", "value": 63}, {"measurement": "PCWP", "setting": "[1]; Patient 4, 40 ppm inhaled NO", "value": 7}, {"measurement": "PVR", "setting": "[1]; Patient 4, 40 ppm inhaled NO", "value": 5.38}, {"measurement": "PVR/SVR", "setting": "[1]; Patient 4, 40 ppm inhaled NO", "value": 0.29}, {"measurement": "RA", "setting": "[1]; Patient 4, 40 ppm inhaled NO", "value": 3}, {"measurement": "SVR", "setting": "[1]; Patient 4, 40 ppm inhaled NO", "value": 18.30}, {"measurement": "TPR", "setting": "[1]; Patient 4, 40 ppm inhaled NO", "value": 6.72}, {"measurement": "mPAP", "setting": "[1]; Patient 4, 40 ppm inhaled NO", "value": 35.00}, {"measurement": "CI", "setting": "[1]; Patient 5, 40 ppm inhaled NO", "value": 2.85}, {"measurement": "CO", "setting": "[1]; Patient 5, 40 ppm inhaled NO", "value": 5.05}, {"measurement": "PAD", "setting": "[1]; Patient 5, 40 ppm inhaled NO", "value": 17}, {"measurement": "PAS", "setting": "[1]; Patient 5, 40 ppm inhaled NO", "value": 64}, {"measurement": "PCWP", "setting": "[1]; Patient 5, 40 ppm inhaled NO", "value": 14}, {"measurement": "PVR", "setting": "[1]; Patient 5, 40 ppm inhaled NO", "value": 3.70}, {"measurement": "PVR/SVR", "setting": "[1]; Patient 5, 40 ppm inhaled NO", "value": 0.30}, {"measurement": "RA", "setting": "[1]; Patient 5, 40 ppm inhaled NO", "value": 5}, {"measurement": "RVD", "setting": "[1]; Patient 5, 40 ppm inhaled NO", "value": 5}, {"measurement": "RVS", "setting": "[1]; Patient 5, 40 ppm inhaled NO", "value": 66}, {"measurement": "SVR", "setting": "[1]; Patient 5, 40 ppm inhaled NO", "value": 12.15}, {"measurement": "TPR", "setting": "[1]; Patient 5, 40 ppm inhaled NO", "value": 6.47}, {"measurement": "mPAP", "setting": "[1]; Patient 5, 40 ppm inhaled NO", "value": 32.67}, {"measurement": "CI", "setting": "[1]; Patient 6, iNO", "value": 3.1658}, {"measurement": "CO", "setting": "[1]; Patient 6, iNO", "value": 6.3}, {"measurement": "PAD", "setting": "[1]; Patient 6, iNO", "value": 27}, {"measurement": "PAS", "setting": "[1]; Patient 6, iNO", "value": 58}, {"measurement": "PCWP", "setting": "[1]; Patient 6, iNO", "value": 13}, {"measurement": "PVR", "setting": "[1]; Patient 6, iNO", "value": 4.3924}, {"measurement": "PVR/SVR", "setting": "[1]; Patient 6, iNO", "value": 0.3132}, {"measurement": "RA", "setting": "[1]; Patient 6, iNO", "value": 12}, {"measurement": "RVD", "setting": "[1]; Patient 6, iNO", "value": 12}, {"measurement": "RVS", "setting": "[1]; Patient 6, iNO", "value": 58}, {"measurement": "SVR", "setting": "[1]; Patient 6, iNO", "value": 14.023}, {"measurement": "TPR", "setting": "[1]; Patient 6, iNO", "value": 6.4559}, {"measurement": "mPAP", "setting": "[1]; Patient 6, iNO", "value": 40.672}, {"measurement": "PCWP compared to baseline", "setting": "[1]; after inhalation of NO, in some instances", "value": "increased"}, {"measurement": "HR", "setting": "[2]; Patient 1, 40 ppm inhaled NO", "value": 84}, {"measurement": "Systemic DBP", "setting": "[2]; Patient 1, 40 ppm inhaled NO", "value": 66}, {"measurement": "Systemic SBP", "setting": "[2]; Patient 1, 40 ppm inhaled NO", "value": 107}, {"measurement": "Systemic mBP", "setting": "[2]; Patient 1, 40 ppm inhaled NO", "value": 79.68}, {"measurement": "HR", "setting": "[2]; Patient 2, 40 ppm inhaled NO", "value": 71}, {"measurement": "Systemic DBP", "setting": "[2]; Patient 2, 40 ppm inhaled NO", "value": 69}, {"measurement": "Systemic SBP", "setting": "[2]; Patient 2, 40 ppm inhaled NO", "value": 124}, {"measurement": "Systemic mBP", "setting": "[2]; Patient 2, 40 ppm inhaled NO", "value": 87.34}, {"measurement": "HR", "setting": "[2]; Patient 3, 40 ppm inhaled NO", "value": 75}, {"measurement": "Systemic DBP", "setting": "[2]; Patient 3, 40 ppm inhaled NO", "value": 57}, {"measurement": "Systemic SBP", "setting": "[2]; Patient 3, 40 ppm inhaled NO", "value": 108}, {"measurement": "Systemic mBP", "setting": "[2]; Patient 3, 40 ppm inhaled NO", "value": 74.01}, {"measurement": "HR", "setting": "[2]; Patient 4, 40 ppm inhaled NO", "value": 66}, {"measurement": "Systemic DBP", "setting": "[2]; Patient 4, 40 ppm inhaled NO", "value": 76}, {"measurement": "Systemic SBP", "setting": "[2]; Patient 4, 40 ppm inhaled NO", "value": 143}, {"measurement": "Systemic mBP", "setting": "[2]; Patient 4, 40 ppm inhaled NO", "value": 98.35}, {"measurement": "HR", "setting": "[2]; Patient 5, 40 ppm inhaled NO", "value": 56}, {"measurement": "Systemic DBP", "setting": "[2]; Patient 5, 40 ppm inhaled NO", "value": 51}, {"measurement": "Systemic SBP", "setting": "[2]; Patient 5, 40 ppm inhaled NO", "value": 97}, {"measurement": "Systemic mBP", "setting": "[2]; Patient 5, 40 ppm inhaled NO", "value": 65.34}, {"measurement": "HR", "setting": "[2]; Patient 6, iNO", "value": 100}, {"measurement": "Systemic DBP", "setting": "[2]; Patient 6, iNO", "value": 77}, {"measurement": "Systemic SBP", "setting": "[2]; Patient 6, iNO", "value": 147}, {"measurement": "Systemic mBP", "setting": "[2]; Patient 6, iNO", "value": 100.346}, {"measurement": "Syst O2sat", "setting": "[3]; Patient 1, 40 ppm inhaled NO", "value": 100}, {"measurement": "Syst O2sat", "setting": "[3]; Patient 2, 40 ppm inhaled NO", "value": 100}, {"measurement": "Syst O2sat", "setting": "[3]; Patient 3, 40 ppm inhaled NO", "value": 99}, {"measurement": "Syst O2sat", "setting": "[3]; Patient 4, 40 ppm inhaled NO", "value": 100}, {"measurement": "Syst O2sat", "setting": "[3]; Patient 5, 40 ppm inhaled NO", "value": 100}, {"measurement": "Syst O2sat", "setting": "[3]; Patient 6, iNO", "value": 100}]}]}
